Source: patent US8093393B2, “Cationic ceramides, and analogs thereof, and their use for preventing or treating cancer” (MUSC Foundation for Research Development, priority 2004, dated 2012)
Like-named read-outs stand apart in the source and are kept apart here.

Assays:
telomerase [1] = test: Telomerase activity (TRAP) in treated cells; format: cell-based, human; conditions: UM-SCC-22A
Procedure: (§1) FIGS. 13A to 13B. Roles of CCPS on cell cycle profiles, and telomerase activity of UM-SCC-22A cells. (FIG. 13A) The effects of D-e-C6—, D-e-C12- and L-th-C12-pyridinium ceramides (at 1 μM for 48 hr) on cell cycle profiles of UM-SCC-22A cells were determined and compared to that of untreated cells using flow cytometry as described in Materials and Methods. (FIG. 13B) The effects of 0, 100, 250 and 500 nM L-t-C6-Pyr-Cer (LCL-124) (lanes 1-4, respectively) at 96 hr treatment in UM-SCC-22A cells on telomerase activity was assessed using TRAP assay. Lanes 5 and 6 contain positive (+) and negative (−) controls. To examine whether C6-Pyr-Cer inhibits telomerase activity directly, cell extracts (as shown in lane 1) were incubated in the presence of various concentrations of L-th-C6-Pyr-ceramide (LCL-124; 10, 20 and 100 μM) and telomerase activity was determined using TRAP assay (lanes 7-9, respectively). The presence of non-telomeric 36 bp internal standard (IS) in the TRAP assay serves as a control for polymerase chain reaction, and used for quantitation/normalization of the activity of telomerase. The results shown are representative of at least two independent experiments.
FIGS. 14A to 14D. […] (FIG. 14A) The effects of various chemotherapeutic agents on cell growth in UM-SCC-22A cells were determined using MTT assays, and the IC50 concentrations of each agent were determined from cell growth plots as described. (FIG. 14B) The synergistic effects of DOX and L-th-C6-Pyr-Cer (LCL-124) on cell growth were assessed using isobologram studies as described in Materials and Methods. (FIG. 14C) The effects of 1 μM L-th-C6-Pyr-Cer (LCL-124) or cetyl-pyridinium-bromide, without ceramide conjugate (used as a control) on the growth inhibition potential of GMZ in UM-SCC-22A cells were determined using MTT assays. (FIG. 14D) The effects of GMZ (100 nM), L-th-C6-Pyr-Cer (LCL-124; 1 μM) or GMZ and L-th-C6-Pyr-Cer (LCL-124) (100 nM and 1 μM, respectively) on telomerase activity in UM-SCC-22A cells at 48 hr were examined using TRAP assay, and compared to that of untreated controls (lanes 2, 3, 4 and 1, respectively). The data shown are representative of at least two independent experiments performed in triplicate samples. Standard deviations in each sample were between 0.1-0.5.
Determination of telomerase activity. Telomerase activity in cell extracts was measured by the PCR-based telomere repeat amplification protocol (TRAP) using TRAPeze kit (Intergen, Gaithersburg, Md.) which includes a 36-bp internal control to allow quantification of activity. In short, the intensity of telomere-specific DNA bands, measured using Quantity One (BioRad) software, were normalized to the intensity of internal control bands for each sample on polyacrylamide gels for quantification.

UM-SCC12 cells = test: MTT cell survival assay; format: cell-based, human; conditions: UM-SCC12, 96 hr
Procedure: (§2) Cell lines and culture conditions. […] Cells were grown in DMEM containing 10% FCS and 1% penicillin/streptomycin at 37° C. in 5% CO2. The Wi-38 human lung fibroblasts were obtained from American Type Culture Collection, and were grown in DMEM as described above. Adult human epidermal keratinocytes were purchased from Cascade Biologics, and were maintained in EpiLife medium with growth supplements as described by the manufacturer.
(§3) MTT cell survival assay and isobologram studies. […] Triplicate wells were used for each treatment. The final concentration of DMSO (a solvent for conventional ceramides, GMZ and DOX) in the growth medium was less than 0.1% (v/v) which has no effect on cell growth and survival. Pyridinium ceramides were dissolved in sterile water or growth medium. In short, after cells (5-10×10^3/well) were seeded in 96-well-plates for 24 hr, they were treated with increasing concentrations of ceramide analogs for an additional 48 or 96 hr. For combination treatments, ceramides and chemotherapeutic agents (gemcitabine (GMZ) or doxorubicin (DOX)) were added to the growth medium simultaneously during treatment. Isobologram plots were then constructed using IC50 values of the two agents alone or in combination obtained from MTT assays. […]

telomerase [2] = target: T1, telomerase (Homo sapiens, UniProt O14746); test: Telomerase activity (TRAP), compound applied directly to cell extracts; format: biochemical; conditions: 10, 20 and 100 μM
T1 construct: endogenous in cells; host or cells: UM-SCC-22A
T1 sequence (O14746 whole entry): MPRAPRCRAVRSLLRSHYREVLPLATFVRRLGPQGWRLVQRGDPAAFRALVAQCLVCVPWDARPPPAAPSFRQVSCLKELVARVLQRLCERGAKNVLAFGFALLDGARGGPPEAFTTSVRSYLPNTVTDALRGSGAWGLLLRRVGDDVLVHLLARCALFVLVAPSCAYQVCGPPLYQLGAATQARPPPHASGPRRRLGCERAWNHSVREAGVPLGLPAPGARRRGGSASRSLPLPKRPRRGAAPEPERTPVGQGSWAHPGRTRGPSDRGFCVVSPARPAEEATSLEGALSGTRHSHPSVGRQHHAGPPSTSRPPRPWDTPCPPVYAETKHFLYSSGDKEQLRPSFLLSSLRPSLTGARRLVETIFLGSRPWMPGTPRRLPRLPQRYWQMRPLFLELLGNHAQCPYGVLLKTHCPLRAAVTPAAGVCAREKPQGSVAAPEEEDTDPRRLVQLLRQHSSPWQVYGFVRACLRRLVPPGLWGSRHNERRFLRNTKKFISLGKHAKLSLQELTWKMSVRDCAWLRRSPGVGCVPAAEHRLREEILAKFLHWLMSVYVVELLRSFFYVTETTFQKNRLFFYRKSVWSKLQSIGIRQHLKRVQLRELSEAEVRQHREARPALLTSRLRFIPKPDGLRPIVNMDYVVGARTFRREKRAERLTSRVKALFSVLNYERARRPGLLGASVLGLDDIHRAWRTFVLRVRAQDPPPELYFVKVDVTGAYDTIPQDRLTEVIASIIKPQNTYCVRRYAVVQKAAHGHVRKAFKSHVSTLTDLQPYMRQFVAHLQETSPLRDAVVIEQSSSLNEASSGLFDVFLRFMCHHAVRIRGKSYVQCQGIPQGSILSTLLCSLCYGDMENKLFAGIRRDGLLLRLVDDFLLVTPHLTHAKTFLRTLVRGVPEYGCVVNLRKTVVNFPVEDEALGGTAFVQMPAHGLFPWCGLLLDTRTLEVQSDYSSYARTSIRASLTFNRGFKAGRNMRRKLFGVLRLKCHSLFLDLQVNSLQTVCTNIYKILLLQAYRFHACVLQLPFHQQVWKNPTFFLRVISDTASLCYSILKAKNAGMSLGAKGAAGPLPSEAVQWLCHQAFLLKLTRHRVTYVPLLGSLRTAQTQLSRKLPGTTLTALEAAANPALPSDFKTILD
T1 sequence (O60832 whole entry partner): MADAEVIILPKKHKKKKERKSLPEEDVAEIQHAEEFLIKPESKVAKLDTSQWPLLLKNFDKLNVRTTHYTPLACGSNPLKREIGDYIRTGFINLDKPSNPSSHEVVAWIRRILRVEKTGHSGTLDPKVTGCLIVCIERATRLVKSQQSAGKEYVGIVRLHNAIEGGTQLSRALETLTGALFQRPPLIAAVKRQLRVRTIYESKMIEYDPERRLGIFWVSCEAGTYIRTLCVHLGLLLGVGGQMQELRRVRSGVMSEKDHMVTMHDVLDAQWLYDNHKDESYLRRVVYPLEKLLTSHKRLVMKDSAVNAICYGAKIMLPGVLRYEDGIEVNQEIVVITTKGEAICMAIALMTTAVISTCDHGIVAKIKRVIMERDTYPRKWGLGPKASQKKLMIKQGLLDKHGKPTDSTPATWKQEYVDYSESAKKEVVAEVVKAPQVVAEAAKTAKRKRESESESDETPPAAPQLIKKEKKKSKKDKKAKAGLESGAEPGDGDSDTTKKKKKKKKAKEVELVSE
T1 sequence (Q9NPE3 whole entry partner): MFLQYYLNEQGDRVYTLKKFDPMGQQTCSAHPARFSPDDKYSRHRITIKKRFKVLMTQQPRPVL
T1 sequence (Q9NX24 whole entry partner): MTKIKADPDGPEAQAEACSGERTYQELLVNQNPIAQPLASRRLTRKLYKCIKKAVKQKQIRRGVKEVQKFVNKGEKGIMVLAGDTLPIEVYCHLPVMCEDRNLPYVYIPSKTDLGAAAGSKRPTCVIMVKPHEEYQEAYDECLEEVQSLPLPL
T1 sequence (Q9NY12 whole entry partner): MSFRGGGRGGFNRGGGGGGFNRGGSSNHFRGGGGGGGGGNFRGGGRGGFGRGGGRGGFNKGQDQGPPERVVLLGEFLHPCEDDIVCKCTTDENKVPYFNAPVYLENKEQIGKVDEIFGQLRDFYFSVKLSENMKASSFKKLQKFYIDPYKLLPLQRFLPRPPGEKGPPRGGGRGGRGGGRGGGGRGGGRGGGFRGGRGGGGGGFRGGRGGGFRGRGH
T1 sequence (Q9BUR4 whole entry partner): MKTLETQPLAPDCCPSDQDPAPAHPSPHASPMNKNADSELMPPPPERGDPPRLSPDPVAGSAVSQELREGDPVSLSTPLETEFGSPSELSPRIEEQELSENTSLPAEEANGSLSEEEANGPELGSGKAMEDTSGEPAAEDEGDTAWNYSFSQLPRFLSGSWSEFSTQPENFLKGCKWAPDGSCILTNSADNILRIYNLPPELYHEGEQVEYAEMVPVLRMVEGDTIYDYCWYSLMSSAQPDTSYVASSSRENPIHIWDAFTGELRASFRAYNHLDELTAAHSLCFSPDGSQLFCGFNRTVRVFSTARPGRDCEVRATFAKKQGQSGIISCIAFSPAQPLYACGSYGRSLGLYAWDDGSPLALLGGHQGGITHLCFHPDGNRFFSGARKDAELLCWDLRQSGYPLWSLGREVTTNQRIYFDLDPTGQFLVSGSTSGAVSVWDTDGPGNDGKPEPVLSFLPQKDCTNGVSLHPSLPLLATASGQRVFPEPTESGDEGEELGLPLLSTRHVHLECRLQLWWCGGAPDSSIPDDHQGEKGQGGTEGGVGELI
Procedure: as §1, with “The results shown are representative of at least two independent experiments.” left out
Determination of telomerase activity. Telomerase activity in cell extracts was measured by the PCR-based telomere repeat amplification protocol (TRAP) using TRAPeze kit (Intergen, Gaithersburg, Md.) which includes a 36-bp internal control to allow quantification of activity. […]

UM-SCC-22A cells [3] = test: Apoptotic cell death by annexin V staining; format: cell-based, human
Text: Thus, these ceramide analogs appear to exert minimal apoptotic activity on their own, with selective cell cycle arrest in these cells.

UM-SCC-22A cells [4] = test: MTT cell survival assay and isobologram studies; format: cell-based, human
[5] = tested on: Wi-38 human lung fibroblasts; test: MTT cell survival assay, non-cancerous cells; format: cell-based; conditions: Wi-38 fibroblasts, DMEM; read-out: IC50, cell growth in DMEM
Procedure: as §2
(§4) MTT cell survival assay and isobologram studies. […] Triplicate wells were used for each treatment. The final concentration of DMSO (a solvent for conventional ceramides, GMZ and DOX) in the growth medium was less than 0.1% (v/v) which has no effect on cell growth and survival. Pyridinium ceramides were dissolved in sterile water or growth medium. In short, after cells (5-10×10^3/well) were seeded in 96-well-plates for 24 hr, they were treated with increasing concentrations of ceramide analogs for an additional 48 or 96 hr. For combination treatments, ceramides and chemotherapeutic agents (gemcitabine (GMZ) or doxorubicin (DOX)) were added to the growth medium simultaneously during treatment. Isobologram plots were then constructed using IC50 values of the two agents alone or in combination obtained from MTT assays. A straight line joining points on x- and y-axes represent the IC50 concentrations of two agents, and the points representing the IC50 concentrations of the combination of the two agents are represented as scatter plots on the same graphs.

[6] = tested on: adult human epidermal keratinocytes (HEK); test: MTT cell survival assay, non-cancerous cells; format: cell-based
Procedure: as §2, §4

UM-SCC-1 cells = test: MTT cell survival assay; format: cell-based, human; conditions: UM-SCC-1, 96 hr; read-out: IC50, cell survival
Procedure: as §2, §3

CCCCCCCCCCCCCC=CC(O)C(CO)NC(=O)CCCCC[n+]1ccccc1 (stereo not drawn) [C6-Pyr-Cer]
inhibition of telomerase activity (telomerase [1]; 100 nM, 96 hr): about 30%
inhibition of telomerase activity (telomerase [1]; 250 nM, 96 hr): ~50%
inhibition of telomerase activity (telomerase [1]; 500 nM, 96 hr): ~75%
inhibition of telomerase activity (telomerase [1]; 48 hr, C6-Pyr-Cer 1 μM, GMZ 100 nM): 30%
IC50 (UM-SCC12 cells): 250 to 300 nM
effect on telomerase activity when applied directly to the extracts (telomerase [2]): no significant effect on telomerase activity
apoptotic cell death, annexin V staining (UM-SCC-22A cells [3]): did not show any detectable signal
effect on the growth inhibition by GMZ (UM-SCC-22A cells [4]; UM-SCC-22A, 1 μM with various concentrations of GMZ, 48 hr): enhanced the anti-proliferative effects of GMZ
interaction with DOX, isobologram (UM-SCC-22A cells [4]; UM-SCC-22A, 25, 50 and 100 nM with DOX, 96 hr): decreased growth synergistically
fold more effective in inhibiting cell growth than conventional C6-ceramides (UM-SCC-22A cells [4]; UM-SCC-22A, 96 hr): > 4 fold
optimum concentration for synergistic interaction with DOX (UM-SCC-22A cells [4]; UM-SCC-22A, 96 hr): 50 nM
IC50 (UM-SCC-22A cells [4]; UM-SCC-22A, 96 hr, DMEM, read-out: IC50, cell growth): ~300 nM
IC50 (UM-SCC-22A cells [4]; UM-SCC-22A, EpiLife medium, 96 hr, read-out: IC50, cell growth in EpiLife medium): > 2000 nM
fold more effective in squamous cell carcinoma cells than in non-cancerous fibroblasts or keratinocytes (UM-SCC-22A cells [4]; in vitro): > 4 fold
IC50 [5]: > 1000 nM
IC50 ([6]; HEK, EpiLife medium, 96 hr, read-out: IC50, cell growth in EpiLife medium): > 2000 nM
IC50 ([6]; keratinocytes, DMEM, read-out: IC50, cell growth in DMEM): > 1000 nM
IC50 (UM-SCC-1 cells): 250 to 300 nM
